# Reference: ChEMBL document CHEMBL2094269, “WEHI/Eskitis Trypanosoma b. brucei screening data”
# What was measured:
# [1] = test system: Trypanosoma brucei brucei; experiment: microbe, parasite or virus in culture; assay type: functional, organism-based, STIB 795
# Description: DNDI: Inhibition of Human African Trypanosomiasis (HAT), STIB 795, in vitro
# [2] = DNDI: Cytotoxicity against human MRC-5 lung fibroblast cells.; details: IC50
SMILES,"IC50 ([1]; Trypanosoma brucei, STIB 795)",IC50 [2],IC50 [1]
Cc1cc(C)n(-c2ccc3c(Cl)cc(Cl)c(O)c3n2)n1,4.79 µM,> 41.7 µM,
COc1ccc(/C(N)=N/OC(=O)N2CCOCC2)cc1OC,2.98 µM,> 20.8 µM,
NCC12CC3CC(C1)CC(c1ccc(Cl)c(Cl)c1)(C3)C2,2.54 µM,> 41.7 µM,
CCOC(=O)N/N=C1/c2ccccc2-c2nc3nonc3nc21,0.8 µM,> 20.8 µM,
CCOC(=O)c1nc[nH]c1/N=N/c1ccc(O)c2ccccc12,0.927 µM,3.83 µM,
Fc1ccc(C(=CCCn2ccnc2)c2ccc(F)cc2)cc1,0.327 µM,7.02 µM,
C/C(=N\NC(=O)CCCNc1cccc(C)c1)c1ccccn1,3.96 µM,> 10.4 µM,
CCc1cc(OCCCCCN2CCNCC2)ccc1Cl,0.807 µM,> 20.8 µM,
N#CC1=C(N)Oc2[nH]nc(C(F)(F)F)c2C1c1cccs1 (stereo not given),5.51 µM,> 41.7 µM,5.41 µM
O=C1/C(=C\c2ccccc2F)COC/C1=C\c1ccccc1F,1.6 µM,> 41.7 µM,
CCc1ccccc1Nc1nc(-c2ccc(O)cc2O)cs1,3.63 µM,> 41.7 µM,
COc1nccnc1N/N=C/c1cc(Cl)cc(Cl)c1O,5.19 µM,> 20.8 µM,
N=C(N)N/N=C(\c1ccc(Cl)cc1)c1ccc(Cl)s1,≤ 2.46 µM,> 4.17 µM,
N/C(Cc1cccc2ccccc12)=N\OC(=O)N1CCOCC1,0.604 µM,> 20.8 µM,
Cc1ccc(NCC(=O)N/N=C/c2c(C)cc(O)cc2O)cc1,5.37 µM,> 20.8 µM,
CCn1c(=N)n(CCCOc2ccc(F)cc2)c2ccccc21,5.46 µM,> 20.8 µM,
Cc1ccc(-n2nnnc2CNC(=O)c2cccs2)cc1C,5.85 µM,> 41.7 µM,
C[n+]1ccc(/C=C/c2c[nH]c3ccc(Br)cc23)cc1,5.26 µM,> 4.17 µM,
Cc1ccccc1/N=N/C(=N\Nc1ccccc1)c1ccccc1,1.64 µM,> 41.7 µM,
O=C(NCCCN1CCCC1)c1ccc(-c2ccccc2)s1,5.51 µM,> 20.8 µM,
Cc1cc(C)c2nc(C)cc(Nc3ccc(O)cc3)c2c1,2.95 µM,> 20.8 µM,
Cc1cc(C)c2nc(C)cc(Nc3cccc(O)c3)c2c1,4.93 µM,> 20.8 µM,
CCCCC1=NN(C(=O)c2ccccn2)C(O)(C(F)(F)F)C1 (stereo not given),5.4 µM,> 20.8 µM,
Oc1c(/N=N/c2ccc3cccc(O)c3n2)ccc2ccccc12,3.87 µM,> 20.8 µM,
CC(C)NCC(O)COc1cc2ccsc2c2ccccc12 (stereo not given),1.54 µM,7.53 µM,

SMILES,"IC50 ([1]; Trypanosoma brucei, STIB 795)",IC50 [2],IC50 [1]
O=C(Nc1c2ccccc2nc2ccccc12)c1ccccc1F,5.31 µM,> 4.17 µM,
CC(C)OCc1cc(CN2CCOCC2)c(O)c2ncccc12,0.498 µM,0.91 µM,
Clc1ccc(OCCCCCN2CCNCC2)c(Cl)c1,3.57 µM,> 41.7 µM,
Cn1c(-c2cccnc2)nn(C2CC(=O)C3OCC2O3)c1=S (stereo not given),2.32 µM,> 20.8 µM,
N/C(Cc1cccs1)=N\OC(=O)C12CC3CC(CC(C3)C1)C2,0.125 µM,> 20.8 µM,
CC[n+]1c(/C=C/c2ccc(N(C)C)cc2)ccn1-c1ccccc1,0.536 µM,> 20.8 µM,
C=CCc1ccc(OCCCCCN2CCNCC2)c(OC)c1,3.19 µM,> 41.7 µM,
C=CCNCCCCOc1ccc(Br)cc1Cl,4.95 µM,> 41.7 µM,
Cn1ccnc1Sc1cnn(-c2ccccc2)c(=O)c1Cl,5.27 µM,> 20.8 µM,
N/C(=N\OC(=O)c1ccccc1Br)c1ccccc1,2.66 µM,> 20.8 µM,
Clc1ccc(CCNCc2c[nH]c3ccccc23)c(Cl)c1,5.33 µM,> 20.8 µM,
Cc1nn2c(=O)cc(-c3ccc(F)cc3)[nH]c2c1-c1ccccc1,0.913 µM,2.42 µM,
CC(C)N1C/C(=C/c2ccccn2)C(=O)/C(=C/c2ccccn2)C1,0.236 µM,5.78 µM,
CC(C)(C)c1ccc(CN2CCCn3c2nc2ccccc23)cc1,5.62 µM,> 20.8 µM,
Cc1cccc(CN2CCN(Cc3c[nH]c4ccccc34)CC2)c1,5.24 µM,> 20.8 µM,
CCOc1cc(CNCCc2cccc(Cl)c2)ccc1OC,4.84 µM,> 20.8 µM,
O=C(NNC(=O)c1ccccn1)c1cccc(Br)c1,1.74 µM,> 4.17 µM,
COc1ccc(C/C(N)=N/OC(=O)c2cccs2)cc1OC,4.78 µM,> 41.7 µM,
Cc1cc(C)c2nc(C)cc(Nc3ccc4c(c3)OCCO4)c2c1,3.91 µM,> 41.7 µM,
CCN(CC)c1ccc(/C=N/NC(=O)c2ccncc2)c(O)c1,3.82 µM,> 4.17 µM,7.34 µM
Cc1cc(NCCN2CCCCC2)c2ccc3ccccc3c2n1,2.43 µM,> 20.8 µM,
CCN1CCCC(Nc2ccnc3cc4ccccc4cc23)C1 (stereo not given),0.275 µM,4.95 µM,
COc1ccc2c(c1)C(=NN=C(N)N)c1cc(OC)ccc1-2,4.23 µM,> 41.7 µM,
CN1/C(=C/C=C/c2oc3ccccc3[n+]2C)Oc2ccccc21,0.253 µM,> 2.08 µM,
